Where two headings read alike, the source gives them in different places.

A short description of data set [1]: Pharmacokinetic evaluation in cynomolgus monkeys. Type of data set: in vivo. As to conditions: for AUC / half-life / Cmax / MRT / Vd/F / CL/F: both (Example 16), male (MYK-461), cynomolgus monkey, plasma; for AUC: read-out: Area under curve AUC; for half-life: read-out: Half-life T1/2 (converted); for Cmax: read-out: Plasma concentration Cmax; for MRT: read-out: Residence time MRT; for Vd/F: read-out: Apparent volume of distribution Vz/F; for CL/F: read-out: Clearance CL/F. As for the experimental part:
With cynomolgus monkeys as test animals, the plasma concentrations of the test compounds were measured by LC/MS/MS at different time points after intragastric administration and intravenous injection. The pharmacokinetic performance of the compound disclosed herein was studied in cynomolgus monkeys and its pharmacokinetic profile was evaluated.
Pharmacokinetics of the compound of Example 16 in cynomolgus monkeys: 8 cynomolgus monkeys, an equal number of males and females, divided into 2 groups of 4, provided by Shanghai Medicilon Inc.
Pharmacokinetics of compound MYK-461 in cynomolgus monkeys: 6 cynomolgus monkeys, male, divided into 2 groups of 3, provided by Shanghai Medicilon Inc.
A certain amount of the compound of Example 16 was measured out, and 5% DMSO, 30% PG, 30% PEG400 and 35% normal saline were added to prepare a clear solution.
A certain amount of compound MYK-461 was measured out, and 5% DMSO, 20% PG, 20% PEG400 and 55% normal saline were added to prepare a clear solution.
Cynomolgus monkeys were fasted overnight and then given compounds by intragastric administration and intravenous injection at doses of 2 mg/kg and 0.5 mg/kg, respectively, and at volumes of 5 mL/kg and 2 mL/kg, respectively.
1.0-mL blood samples were collected from the forelimb veins of the animals in the intragastric administration group before administration and 0.25 h, 0.5 h, 1h, 2 h, 4 h, 6 h, 8 h, 12 h and 24 h after administration, placed into EDTA-K2 anticoagulant tubes, and centrifuged at 10,000 rpm for 5 min (4° C.), and plasma was isolated within 1 h and stored at −80° C. before analysis. The blood collection to centrifugation process was performed under ice bath conditions. Three hours after administration, feeding was resumed, and ad libitum access to water was given.
Blood samples were collected from the animals in the intravenous injection group before administration and 5 min, 0.25 h, 0.5 h, 1.0 h, 2.0 h, 4.0 h, 8.0 h, 12.0 h and 24.0 h after administration and processed as in the intragastric administration group.
Determination of plasma concentrations in cynomolgus monkeys after intragastric administration and intravenous injection of different concentrations of test compounds: 20 μL of cynomolgus monkey plasma at each time point post-dose was mixed with an internal standard solution (internal standard for the compound of Example 16: 10 ng/mL verapamil; internal standard for compound MYK-461: 100 ng/mL camptothecin) and 400 μL of methanol; the mixture was vortexed for 1 min and centrifuged at 18,000 g for 7 min, and 200 μL of the supernatant was transferred to a 96-well plate: 2 μL of the supernatant was taken for LC/MS/MS analysis.

The nature of data set [2]: Identification of reactive metabolites (GSH conjugates) in human liver microsomes. As to conditions: for Identification of reactive metabolites: Result: human liver microsomes 1 mg/mL, test compound 30 μM, GSH 5 mM, NADPH 1.0 mM, 60 min, 37° C.; for glutathione (GSH) conjugate associated with the compound detected (in words): human liver microsomes, GSH trapping. It is filed as in vitro ADME. As for the experimental part:
The identification of reactive metabolites of the compound disclosed herein in human liver microsomes was carried out using the experimental method below:
• 1. Phosphate-buffered saline (purchased from Shanghai Sangon) • 2. NADPH (ACROS, A2646-71-1) • 3. Human liver microsome (Corning Gentest, Cat No. 452161, Lot No. 905002) • 4. Thermo UHPLC-Q-Exactive Orbitrap mass spectrometer (Thermo Fisher Scientific) • 5. Acquity BEH C18 column, 2.1×100 mm, 1.7 μm (Waters, USA) • 6. Positive control compound (diclofenac).
• 1. Preparation of test compound solutions: A proper amount of a test compound was precisely measured out and dissolved in a proper amount of DMSO. After the solution was well mixed, a 30 mM stock solution was obtained. A […] stock solution was 10-fold diluted with 50% acetonitrile/water (v/v) to obtain a 3.0 mM working solution 1. The 3.0 mM working solution 1 was 10-fold diluted with PBS to obtain a 300 μM working solution 2, and the solution was stored at 4° C. before use. • 2. Preparation of phosphate-buffered saline: Proper amounts of K2HPO4 and KH2PO4 were measured out and dissolved in 4 L of pure water to prepare a 100 mM buffer, and the pH was then adjusted with phosphoric acid or sodium hydroxide to 7.4. • 3. Preparation of liver microsome solutions: Proper amounts of liver microsome stock solutions of various species (20 mg/mL) were measured out and diluted with the 100 mM phosphate-buffered saline (pH 7.4) to prepare 1.43 mg/mL microsome solutions. • 4. Preparation of NADPH cofactor solution: Proper amounts of NADPH and magnesium chloride were measured out and dissolved in a proper amount of the 100 mM phosphate-buffered saline (pH 7.4) so the concentrations of NADPH and magnesium chloride were 10 mM and 30 mM, respectively, and the solutions were stored for later use. • 5. Preparation of glutathione (GSH) solution: A proper amount of glutathione was measured out and dissolved in a proper amount of the 100 mM phosphate-buffered saline (pH 7.4) so the concentration of GSH was 50 mM, and the solution was stored for later use. • 6. The incubation system is shown below:
To a 1.5 mL centrifuge tube, 20 μL of the 300 μM working solution 2 was precisely transferred and 140 μL of a 1.43 mg/mL liver microsome solution was then added so the concentration of liver microsomal protein in the incubation system was 1 mg/mL. […] The collected data were processed and analyzed using Xcalibur software. According to the exact molecular weight, tandem mass spectrometry fragments were analyzed to see if the compound disclosed herein would be metabolically activated to produce reactive metabolites.

Setting [3] is: intravenous injection, 0.5 mg/kg.
The mark [4] stands for this setting: po, intragastric administration, 2 mg/kg.

The term AUC denotes concentration integrated over time. By MRT is commonly meant a mean duration of stay, worked out from the concentration-time curve. Turning to `Cc1ccc(F)c([C@H](C)Nc2nc(=O)n(C3CCOCC3)c(=O)[nH]2)c1` [Example 16, (S)-6-((1-(2-Fluoro-5-methylphenyl)ethyl)amino)-3-(tetrahydro-2H-pyran-4-yl)-1,3,5-triazine-2,4(1H,3H)-dione], in data set [1], the “T1/2 comparison (in words)” value is “significantly shorter T1/2” and the “absorption profile (in words)” value was “good absorption profile”. In addition, in data set [1] (setting [3]), the AUC amounted to 1020 ng·h/mL, the half-life is 5.6 h, the Cmax worked out at 1660 ng/mL and the MRT was 6.8 h. In addition, in data set [1] (setting [3]), the “Apparent volume of distribution Vz/F” value was determined as 3.579 L/kg and the “Clearance CL/F” value is 7.46 mL/min/kg. Besides, in data set [1] (setting [4]), the Vd/F is 10.3 L/kg, the AUC worked out at 2400 ng·h/mL, the CL/F turned out to be 11.8 mL/min/kg and the half-life was 10.3 h. In data set [1] (setting [4]), the Cmax amounted to 553 ng/mL and the MRT came to 12.5 h. In data set [2], the “Identification of reactive metabolites: Result” value is recorded as “Negative” and the “glutathione (GSH) conjugate associated with the compound detected (in words)” value was “no glutathione (GSH) conjugate”.
For the compound `CC(C)n1c(=O)cc(N[C@@H](C)c2ccccc2)[nH]c1=O` [MYK-461, reference compound], in data set [1], the “T1/2 comparison (in words)” value is listed as “longer T1/2”. For the same compound, in data set [1] (setting [3]), the AUC stood at 976 ng·h/mL, the half-life was 27.3 h, the Cmax was determined as 222 ng/mL and the MRT came out at 42.8 h. Also, in data set [1] (setting [3]), the “Apparent volume of distribution Vz/F” value came to 8.203 L/kg and the “Clearance CL/F” value was determined as 5.02 mL/min/kg. Further, in data set [1] (setting [4]), the Vd/F was 11.4 L/kg, the AUC turned out to be 3520 ng·h/mL, the CL/F came out at 2.34 mL/min/kg and the half-life is 78.3 h. Moreover, in data set [1] (setting [4]), the Cmax came out at 563 ng/mL and the MRT came to 114 h. In data set [2], the “Identification of reactive metabolites: Result” value is “Positive” and the “glutathione (GSH) conjugate associated with the compound detected (in words)” value is given as “detected”.
